pIC50: −log10 of the molar value.
System: S. cerevisiae tim10-1 mutant growth, luminescence
Test: growth inhibitors of tim10-1 mutant yeast, dose response, luminescence, S. cerevisiae, uHTS hits (AID 493003);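 further: yeast growth measured after about 22 hours at 25 °C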

Compound | pIC50
O=C(Nc1ccc(N2CCN(C(=O)c3cccs3)CC2)cc1)c1cccc(F)c1 | 4.39
O=C(c1ccc2ncsc2c1)N1CCN(c2cccc(C(F)(F)F)c2)CC1 | 4.42
COc1ccc(C)c2sc(N3CCCC3)nc12 | 4.66
Clc1ccc(Cn2c(/C=C/c3ccco3)nc3ccccc32)cc1 | 4.34
CCOC(=O)N1CCN(C(=O)c2ccc(CSc3ccc(Cl)cc3)cc2)CC1 | 4.13
COc1ccc2sc(-c3ccc(S(C)(=O)=O)cc3)c(C#CCO)c2c1 | 4.62
N/C(=N\OC(=O)Cc1ccc([N+](=O)[O-])cc1)c1cccc(Br)c1 | 4.56
O=C(OCn1ncc(Br)c(Br)c1=O)c1ccccc1Cl | 5.21
O=[N+]([O-])c1ccccc1/C=C/C=N/n1c(-c2ccccc2)n[nH]c1=S | 4.13
COc1ccc(Cl)cc1NC(=S)NCCSc1ccc(C)cc1 | 4.75
O=C(c1ccc2c3n(nc2c1)-c1ccccc1CO3)N1CCCCC1 | 4.87
N/C(=N\OC(=O)CCC1CCCCC1)c1ccccn1 | 4.57
Cc1cc(Nc2nc(Cl)c(Cl)cc2Cl)n(-c2ccccc2)n1 | 4.57
N/C(=N\OC(=O)c1ccccc1Cl)c1cccc([N+](=O)[O-])c1 | 4.64
Cc1ccc(NC(=S)NNC(=O)CSc2nc3ccccc3c(=O)n2-c2ccc(C)cc2)cc1 | 4.35
Cc1cc(N)n2ncc(-c3ccc(F)cc3)c2n1 | 4.44
Cc1ccc(O)c(-c2cc(-c3cccc(F)c3)n[nH]2)c1 | 4.01
CCCOc1ccc2c(c1)C(=NN=C(N)N)c1cc(OCCC)ccc1-2 | 4.70
CC(C)(C)NC(=O)NC(=O)COC(=O)CCC1CCCCC1 | 4.16
C=CCN1C(=O)C(O)(CC(=O)c2ccc(-n3cccc3)cc2)c2ccccc21 (stereo not drawn) | 4.62
COc1ccc(C(=O)Nc2ccc(S(=O)(=O)N3CCCCC3)cc2)cc1OC | 4.55
COc1cccc2sc(Nc3nc(-c4ccccn4)cs3)nc12 | 4.69
COc1ccc(OC)c(N=c2ssnc2Cl)c1 | 4.68
O=c1c2ccccc2oc2ccc(C#CC3(O)CCCCC3)cc12 | 4.63

Compound | pIC50
Cc1cc(C)cc(OCCCOc2cccc3cccnc23)c1 | 4.49
CCCCNC(=S)N=Nc1c(O)[nH]c2ccccc12 | 5.00
Cc1ccc2nc(C)c(C(=O)N/N=C/c3cccc([N+](=O)[O-])c3)cc2c1 | 4.59
COc1ccc(-n2c(CNc3ccc(C)cc3)nnc2SCc2ccccc2)cc1 | 4.58
O=C(CSCC(=O)N1CCCCC1)Nc1nc(-c2ccc(Cl)s2)cs1 | 4.42
O=C(CN1CCN(S(=O)(=O)c2ccc(Cl)cc2)CC1)Nc1ccc2c(c1)CCC2 | 4.60
CCN(CC)c1ncnc2c1ncn2Cc1c(Cl)cccc1Cl | 4.34
COC(C/C=C/C(=O)COCc1ccccc1)OC | 4.43
COc1cc2c(cc1OC)CN(c1ccc([N+](=O)[O-])cc1Cl)CC2 | 4.56
COc1ccc(-c2cc(-c3ccc(Cl)cc3)n[nH]2)c(O)c1 | 4.57
COC(=O)N1C(=O)[C@@](c2ccccc2)(C2CCCCC2)N1C(=O)OC | 4.21
COc1ccc(S(=O)(=O)Nc2ccc(O)c(Sc3nc4ccccc4s3)c2)cc1 | 4.47
CC(C)c1nnc(NC(=O)CCS(=O)(=O)c2nc(-c3cccs3)cc(C(F)(F)F)n2)s1 | 4.92
CC(C)C(c1nnnn1C1CCCC1)N1CCCc2ccccc21 (stereo not drawn) | 4.85
COc1ccc(/C(N)=N/OC(=O)c2ccc3c(c2)OCO3)cc1 | 4.83
CC1CCCCN1S(=O)(=O)c1ccc2c(c1)CCN2C(=O)C1CCC1 (stereo not drawn) | 4.21
O=C(CN1CCN(S(=O)(=O)c2ccc3ccccc3c2)CC1)Nc1ccc2c(c1)CCC2 | 4.44
O=[N+]([O-])c1ccc(Sc2cccc3cccnc23)c([N+](=O)[O-])c1 | 4.10
Cc1cccc(/C=N/n2c(COc3ccccc3)n[nH]c2=S)c1 | 4.44
COc1ccc(-c2csc(CCn3nc(C)cc3C)n2)cc1 | 4.52
Cc1ccc(NC(=O)c2cc(S(=O)(=O)NCCC3=CCCCC3)ccc2F)cc1 | 4.97
CC(C)C(=O)Nc1ccc(-c2nc3ccccc3c(=O)o2)cc1 | 4.44
COc1cccc(-c2csc(N3CCN(C(=S)Nc4ccccc4Cl)CC3)n2)c1 | 4.67
CCNC(=S)NNC(=O)c1cc(-c2cc(C)ccc2C)nc2ccccc12 | 4.61

Compound | pIC50
C=CC(=O)Oc1ccc(N2Cc3ccccc3C2=O)cc1 | 5.15
COc1ccc(-c2cc(C(=O)N3CCN(c4ncccn4)CC3)c3ccccc3n2)c(OC)c1 | 4.55
Cc1nonc1C1CCCN1C(=O)c1cc(COc2cccc(C(F)(F)F)c2)on1 (stereo not drawn) | 4.76
O=[N+]([O-])c1cc(Cl)ccc1N1CCN(c2ccccc2O)CC1 | 4.49
CC1(C)CC2CC(C)(CN2C(=S)NC(=O)c2ccccc2Cl)C1 (stereo not drawn) | 4.22
O=S(=O)(CCN(CCS(=O)(=O)C(F)(F)F)CC1CCCO1)C(F)(F)F (stereo not drawn) | 5.11
CCCCN1/C(=C/c2ccc3ccccc3[n+]2CC)Sc2ccccc21 | 4.72
OC(COc1ccccc1)Cn1c2ccccc2c2ccccc21 (stereo not drawn) | 4.53
CCN(CC)c1ccc(NC(=O)CCCCCN2C(=O)c3ccccc3C2=O)cc1 | 4.84
S=C(NCCSCc1ccc(Cl)cc1)Nc1ccccc1 | 4.71
CN(CCCC(=O)O)c1ccc(N=Nc2ccc([N+](=O)[O-])cc2)cc1 | 4.71
COc1cccc(C(=O)CSc2nnnn2C2CCCCC2)c1 | 4.55
COc1ccc(C(=O)C(CN2CCCC2)c2ccccc2)cc1 (stereo not drawn) | 4.72
Clc1cccc(CN2CCc3c([nH]c4ccccc34)C2)c1 | 4.51
CCCc1cc(-c2nc(-c3ccc(C)cc3)cs2)ccn1 | 4.30
CC(=O)/C(=N\Nc1ccc(Cl)cc1Cl)Sc1cccc2cccnc12 | 4.38
O=C(Nc1ccc(Cl)c(C(F)(F)F)c1)c1ccco1 | 4.54
COc1ccc(-c2sc3cc4c(cc3c2C#CC2(N)CCCCC2)OCO4)cc1 | 4.90
S=C(Nc1ccc(Cl)cc1)c1nc2ccccc2[nH]1 | 4.63
CCCOc1ccccc1NC(=O)/C=C/C(N)=O | 5.25
COc1cc(C(=O)Nc2ccc(Cl)c(C(F)(F)F)c2)cc(OC)c1OC | 4.77
O=C(NCCC1=CCCCC1)NC12CC3CC(CC(C3)C1)C2 | 4.29
Nc1ccccc1C(=O)/C=C/c1ccc2c(c1)OCO2 | 4.83
CN=C(Nc1cc(Cl)ccc1Cl)SC1CC(=O)N(c2ccc(C(=O)OC)cc2)C1=O (stereo not drawn) | 4.90

Compound | pIC50
COc1ccc(-c2[nH]ncc2N=Nc2ccccc2)cc1 | 4.78
CC1CCN(c2ccccc2NC(=S)NC(=O)C(C)(C)C)CC1 | 4.12
Cc1ccc2nc(N3CCN(Cc4nnnn4Cc4ccccc4)CC3)c(C#N)cc2c1 | 4.09
N/C(Cc1ccc(Cl)cc1)=N\OC(=O)c1ccc2ccccc2c1 | 6.60
Oc1c(Cl)cc(Cl)cc1CNc1ccc(Br)cn1 | 4.48
CCOc1ccc(NC(=O)c2cccc3c2C(=O)N(Cc2cccnc2)C3)cc1 | 4.64
Cn1c(NCCCO)nc2c(c1=O)C1(CCCCC1)Cc1ccccc1-2 | 4.91
CCNC(=S)N/N=C/c1ccc(-c2ccccc2)o1 | 4.46
Clc1ccc(-c2nc3cnccn3c2Nc2ccc3c(c2)OCO3)cc1 | 4.52
CCc1ccc2nc3nc(C)cc(C)c3c(N)c2c1 | 4.60
Cc1c(C(=O)N2CCN(c3ccc(C(F)(F)F)cn3)CC2)oc2ccccc12 | 4.38
COc1cccc(N2[C@@H](CC(C)=O)c3ccc(/C=C/C(C)=O)cc3S2(=O)=O)c1 | 4.74
Cc1ccccc1NC(=S)N(Cc1ccccn1)Cc1ccccc1Cl | 4.68
O=[N+]([O-])/C(C(Cl)=C(Cl)Cl)=C(/Sc1ccccc1)N1CCCCC1 | 4.41
N/C(=N\OC(=O)c1ccc(F)cc1)c1ccc(Br)cc1 | 5.18
Cc1ccccc1C(=O)NC(=S)Nc1ccccc1N1CCCC1 | 4.76
Cc1c(Cl)c([N+](=O)[O-])nn1Cc1ccc(C(=O)Nc2ccc(Cl)cn2)o1 | 4.32
O=C(Nc1ccc(N2CCN(C(=O)c3ccccc3F)CC2)cc1)c1cncc(Br)c1 | 4.38
CCn1c(SCc2c(F)cccc2Cl)nnc1-c1ccco1 | 4.61
COc1ccc(NC2CCN(C3CC(=O)N(c4ccc(F)c(Cl)c4)C3=O)CC2)cc1 (stereo not drawn) | 4.98
COc1ccc(C(=O)/C=C/c2ccccc2)c(O)c1 | 4.47
CC(CNC(=O)COc1ccccc1)OC(=O)Nc1ccc(Cl)c(Cl)c1 (stereo not drawn) | 4.69
Cc1ccc(N2C(=O)CC(Sc3cccs3)C2=O)cc1 (stereo not drawn) | 4.62
Cc1cc(N/N=C/c2ccccc2O)nc(-c2ccccc2O)n1 | 4.12

Compound | pIC50
Cc1cccc(C(=O)CC(=O)c2cc(Cl)ccc2O)c1 | 4.72
CSc1ccccc1OCc1cc(C(=O)N2CCC(Oc3cccnc3)CC2)no1 | 4.40
Cc1c(C)n(Cc2ccccc2)c2ccc(C(=O)OCCN(C)C)cc12 | 4.49
NC(=S)N/N=C/c1ccccc1OCCSc1ccc(Cl)cc1 | 4.13
COC(=O)c1cc(C)[nH]c2c(C)cc3nc4ccccc4c3c12 | 4.68
S=c1[nH]nc(Nc2ccc(Cl)cc2)s1 | 4.68
Cc1nn(Cc2ccc(Cl)cc2)c(C)c1NC(=O)c1ccc([N+](=O)[O-])cc1 | 4.47
O=C(CSc1nc2cc(Cl)ccc2s1)c1ccco1 | 4.30
CCc1c(C)[nH]n(-c2nc(-c3ccccc3)cs2)c1=O | 4.42
COc1cc(C(=O)O/N=C(\N)Cc2ccc([N+](=O)[O-])cc2)cc(OC)c1OC | 4.65
CCCCN(CC)CCCNC(=O)c1cc2cc3ccc(OC)cc3nc2o1 | 4.76
Cc1cccc(/C=C2\Oc3cc(OS(C)(=O)=O)ccc3C2=O)c1 | 4.50
CC(CC(=O)Nc1ncc([N+](=O)[O-])s1)c1ccccc1 (stereo not drawn) | 4.73
Oc1ccc(-c2nccc(-c3ccc(Cl)cc3)n2)cc1 | 4.61
C=CCc1ccc(O)c(-c2ccc(O)c(CC=C)c2)c1 | 4.31
Cc1nn(-c2ccccc2)c2c1C1(C(=O)N(C)c3ccccc31)C(C#N)=C(N)O2 (stereo not drawn) | 4.27
S=c1[nH]nc(-c2ccco2)n1/N=C/C=C/c1ccccc1 | 4.37
CC(C)(C)c1cc(C(=O)N/N=C/c2ccc(F)cc2)n(-c2ccccc2)n1 | 4.44
Clc1cccc(C2Nc3cccc4cccc(c34)N2)c1Cl | 4.59
O=C(C1CCN(C2CC(=O)N(c3cccc(Cl)c3)C2=O)CC1)N1CCCC1 (stereo not drawn) | 4.74
COc1ccc2cc3cc(C(=O)NCCN4CCc5ccccc5C4)oc3nc2c1 | 6.16
Cc1ccc(Nc2nc(Cl)nc(N(C)C#N)n2)cc1 | 4.60

Source: PubChem BioAssay AID493003 (Sanford-Burnham Center for Chemical Genomics, 2010)
